Results taken from publication PMC9104013, “Role of Polyamine-Induced Dimerization of Antizyme in Its Cellular Functions” (International Journal of Molecular Sciences, 2022).

Columns and labels:
[1] = tested on: +1 frameshifting of eukaryotic OAZ1 mRNA; experiment: Bicistronic β-galactosidase/firefly luciferase +1 frameshift reporter assay; type: cell-based, S. cerevisiae IS532/44d
Text: For this purpose, the earlier developed frameshift reporter system, which includes quadruple S. cerevisiae mutant strain IS532/44d, unable to synthesize and degrade polyamines due to deletion of genes FMS1, SPE1, SPE2, and PAA1, and the plasmids pAC98T-OAZ1-FS and pAC98T-OAZ1-Cont were used. Each of these plasmids bears the reporter gene encoding β-galactosidase and firefly luciferase gene fused with the fragment of eukaryotic OAZ1 containing frameshift site. The plasmid pAC98T-OAZ1-FS contains native eukaryotic OAZ1 fragment, so the efficiency of luciferase synthesis and enzymatic activity depend on the +1 frameshift event. The plasmid pAC98T-OAZ1-Cont contains the eukaryotic OAZ1 fragment with […] replaced by TGG tryptophan codon that enables constitutive synthesis of both β-galactosidase and luciferase whose activity is taken as 100%. Bicistronic assays for frameshifting were performed as described earlier with the following modifications. Yeast transformants of IS532/44d strain were grown on agar plates with the synthetic media containing 0.67% (w/v) Yeast Nitrogen Base without amino acids (Sigma), 2% (w/v) glucose, 2% (w/v) agar, mixture of 19 amino acids without leucine (2 mg/mL each), and adenine (2 mg/mL) at 30 °C for 5–7 days. Then, colonies of yeast transformants were grown in the synthetic media lacking leucine and polyamines for two days. Yeast cultures were diluted to OD600 = 0.1 in 5 mL of synthetic media lacking leucine and supplemented with either Spd, 1-MeSpd, 2-MeSpd, or 3-MeSpd, each at final concentrations of 0.25, 0.5, 1, 2, and 4 mM. Yeast cultures were grown to log phase (OD600 = 0.8–1.4) at 30 °C and harvested by centrifugation, and cell pellets were washed three times with water. Cell pellets were resuspended in 500 μL of buffer containing 60 mM NaH2PO4, 40 mM Na2HPO4, 10 mM KCl, 1 mM MgSO4, 50 mM 2-mercaptoethanol, and 10% glycerol and lysed by vortexing with acid-washed glass beads (Sigma). The lysates were centrifuged (15,000× g, 10 min, 4 °C), and the supernatants were used for β-galactosidase and firefly luciferase reporter gene assays. β-Galactosidase activity was analyzed using ο-nitrophenyl-β-D-galactopyranoside (Sigma) as the substrate in accordance with published protocol. Activity of firefly luciferase was analyzed in 96-well plates using Luciferase Assay System (Promega). Frameshift frequencies were calculated as described.

OAZ1 protein = OAZ1 protein levels in DU145 cells (Western blotting); type: cell-based; conditions: 4 h, 100 μM, MG132 25 μM
Description: Figure 3 2-MeSpd is the weakest inducer of OAZ1 synthesis and the weakest downregulator of ODC in DU145 cells. (A) Uptake of Spd and its analogues in CHX-treated DU145 cells. After 2 h preincubation with CHX (100 µg/mL), the compounds (100 µM) were added, and incubation continued for 4 h before the analysis of the intracellular analogue concentration. (B) Uptake of Spd and its analogues in OAZ1-overexpressing DU145 cells. OAZ1 was induced by 24 h preincubation with DOX (250 ng/mL). The compounds (100 µM) were added for further 6 h before the analysis of intracellular analogue concentration. (C) Effect of Spd and the analogues on OAZ1 protein levels in DU145 cells. The cells were incubated for 4 h with 100 μM analogues in the presence of the proteasomal inhibitor, MG132 (25 μM). (D) Effect of Spd and the analogues on ODC activity in DU145 cells. […]
Polyamines were measured with HPLC according to the published method. Acid-precipitated pellets were dissolved to 0.1 M NaOH, and the amount of DNA was measured using the PicoGreen reagent (Invitrogen) according to manufacturer’s instructions using dilutions of calf thymus DNA (Sigma-Aldrich) as standard curve. Protein concentrations were measured using Bio-Rad protein kit with dilutions of bovine serum albumin (Bio-Rad, Hercules, CA, USA) as standards. ODC activities were measured from the cytosolic fractions as described earlier. […]

ODC = experiment: In vitro effect of Spd and its analogues on ODC activity in cytosolic extract; type: biochemical; conditions: 1 mM, ODC-enriched extract plus extract from OAZ1-overexpressing cells
Description: ODC-enriched lysate was prepared from subconfluent DU145 cells 6 h after medium change by lysing the cells in buffer containing 25 mM Tris-HCl, pH 7.4, 1 mM DTT, and 0.01% Tween-80. OAZ1-enriched lysate was prepared from OAZ1-overexpressing DU145 cells in the same buffer. The lysate was cleared by centrifugation, and the endogenous polyamines were removed by ultrafiltration through 3K-cutoff filter and washing twice with lysis buffer. In experiment 1, ODC-enriched cytoplasmic extract (~100 μg of total protein) was incubated for 30 min at +37 °C in the presence of 1 mM Spd or analogues before ODC activity assay. In experiment 2, ODC-enriched cytoplasmic extract (~100 μg of total protein) was incubated for 30 min at +37 °C with OAZ1-enriched cytoplasmic extract (~100 μg of total protein) in the presence of 1 mM Spd or analogues before ODC activity assay.

SMILES | Frameshifting activity ([1]; 0.25 mM in medium) | Frameshifting activity ([1]; 2.0 mM and 4.0 mM in medium) | Frameshifting activity ([1]; all concentrations tested (0.25-4 mM)) | OAZ1 protein level induction (OAZ1 protein) | Effect on the ability of OAZ1 to inhibit ODC activity in vitro (ODC)
CC(N)CCNCCCCN (stereo not shown) [1-MeSpd] | about the same as Spd | weaker inducers of the frameshifting than Spd | – | – | –
CC(CN)CNCCCCN (stereo not shown) [2-MeSpd] | – | – | substantially weaker inducer of +1 frameshift event than the other compounds | only marginally induced | –
NCCCCNCCCN [Spd, spermidine] | – | – | – | clear induction | did not affect the ability of OAZ1 to inhibit ODC activity
CC(CCN)NCCCCN (stereo not shown) [3-MeSpd] | – | weaker inducers of the frameshifting than Spd | – | – | –
